Measurements taken from patent publication US8815908B2, “Compounds and methods for inhibiting phosphate transport” (Ardelyx, Inc., priority 2010, dated 2014).

Experiments:
rat NaP2b (SLC34A2) = biological target: T1, rat NaP2b (SLC34A2) (Rattus norvegicus, UniProt Q9JJ09); assay: Inhibition of NaP2b-mediated Pi uptake into transfected HEK293 cells (rat); type: cell-based; settings: 33P Pi uptake, 100 uM KH2PO4, read-out: pIC50 range for rat Nap2b (converted)
T1 construct: host or cells: HEK293
T1 sequence (Q9JJ09 1-695): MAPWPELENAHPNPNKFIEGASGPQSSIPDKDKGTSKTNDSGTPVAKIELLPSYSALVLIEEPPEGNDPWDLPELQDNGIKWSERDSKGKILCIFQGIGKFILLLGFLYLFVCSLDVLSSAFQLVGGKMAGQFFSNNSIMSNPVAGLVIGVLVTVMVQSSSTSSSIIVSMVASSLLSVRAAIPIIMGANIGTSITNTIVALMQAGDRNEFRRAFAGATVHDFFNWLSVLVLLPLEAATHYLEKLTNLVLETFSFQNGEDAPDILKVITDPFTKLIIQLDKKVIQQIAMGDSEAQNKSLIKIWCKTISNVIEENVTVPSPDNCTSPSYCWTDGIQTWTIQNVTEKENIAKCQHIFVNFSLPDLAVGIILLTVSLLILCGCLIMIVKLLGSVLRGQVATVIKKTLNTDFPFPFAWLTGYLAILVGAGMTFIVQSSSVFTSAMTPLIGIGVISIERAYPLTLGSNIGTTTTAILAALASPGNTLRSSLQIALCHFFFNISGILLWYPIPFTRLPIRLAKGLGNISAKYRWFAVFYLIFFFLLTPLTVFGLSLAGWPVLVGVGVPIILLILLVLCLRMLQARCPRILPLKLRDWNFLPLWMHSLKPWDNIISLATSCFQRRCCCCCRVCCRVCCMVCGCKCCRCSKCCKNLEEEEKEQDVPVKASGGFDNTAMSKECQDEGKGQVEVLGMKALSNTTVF
Experimental: (§1) HEK293 cells were obtained from the American Type Culture collection and propagated per their instructions. Expression clones for rat and human NaP2b (SLC34A2) were obtained from Open Biosystems (Catalog numbers MRN1768-9510282, and MHS1010-99823026, respectively). The sequence of the human protein was mutated to insert a threonine after residue 37, and to introduce a N39D mutation.
(§2) The rate of phosphate (Pi) uptake into HEK293 cells was measured using a modification of the method described by Mohrmann et al. (Mohrmann, I., Mohrmann, M., Biber, J., and Murer, H. (1986) Am. J. Phys. 250(3 Pt 1):G323-30.) Transfected HEK293 cells were treated with a pharmacological agent to minimize endogenous PiT-mediated phosphate transport activity, such that the only remaining sodium-dependent phosphate transport activity is that which was bestowed by introduction of the NaP2b genes.
Cells were seeded into 96-well plates at 25,000 cells/well and cultured overnight. Lipofectamine 2000 (Invitrogen) was used to introduce the NaP2b cDNA, and the cells were allowed to approach confluence during a second overnight incubation. […] Cells were then overlayed with either choline uptake buffer or sodium uptake buffer (14 mM Tris, 137 mM sodium chloride, 5.4 mM KCl, 2.8 mM CaCl2, 1.2 mM MgSO4, 100 uM KH2PO4, PiT-silencing agent, 1 mg/mL Bovine Serum Albumin, pH 7.4) containing 6-9 uCi/mL ^33P orthophosphoric acid (Perkin Elmer) and test compound. Each compound was tested at twelve concentrations ranging from 0.1 nM to 30 uM. Assays were run in duplicate.
(§3) After incubation for 3-30 minutes at room temperature, assay mixtures were removed, and the cells were washed twice with ice cold stop solution (137 mM sodium chloride, 14 mM Tris, pH 7.4). Cells were lysed by addition of 20 μL 0.1% Tween 80 followed by 100 μL scintillation fluid, and counted using a TopCount (Perkin Elmer).
(§4) pIC50 (the negative log of the IC50) values of the test compounds were calculated using GraphPad Prism.

human NaP2b (SLC34A2) = biological target: T2, human NaP2b (SLC34A2) (Homo sapiens, UniProt O95436); assay: Inhibition of NaP2b-mediated Pi uptake into transfected HEK293 cells (human); type: cell-based; settings: 33P Pi uptake, 100 uM KH2PO4, human protein with Thr inserted after residue 37 and N39D, read-out: pIC50 range for human (converted)
T2 construct: host or cells: HEK293
T2 sequence (O95436 1-690): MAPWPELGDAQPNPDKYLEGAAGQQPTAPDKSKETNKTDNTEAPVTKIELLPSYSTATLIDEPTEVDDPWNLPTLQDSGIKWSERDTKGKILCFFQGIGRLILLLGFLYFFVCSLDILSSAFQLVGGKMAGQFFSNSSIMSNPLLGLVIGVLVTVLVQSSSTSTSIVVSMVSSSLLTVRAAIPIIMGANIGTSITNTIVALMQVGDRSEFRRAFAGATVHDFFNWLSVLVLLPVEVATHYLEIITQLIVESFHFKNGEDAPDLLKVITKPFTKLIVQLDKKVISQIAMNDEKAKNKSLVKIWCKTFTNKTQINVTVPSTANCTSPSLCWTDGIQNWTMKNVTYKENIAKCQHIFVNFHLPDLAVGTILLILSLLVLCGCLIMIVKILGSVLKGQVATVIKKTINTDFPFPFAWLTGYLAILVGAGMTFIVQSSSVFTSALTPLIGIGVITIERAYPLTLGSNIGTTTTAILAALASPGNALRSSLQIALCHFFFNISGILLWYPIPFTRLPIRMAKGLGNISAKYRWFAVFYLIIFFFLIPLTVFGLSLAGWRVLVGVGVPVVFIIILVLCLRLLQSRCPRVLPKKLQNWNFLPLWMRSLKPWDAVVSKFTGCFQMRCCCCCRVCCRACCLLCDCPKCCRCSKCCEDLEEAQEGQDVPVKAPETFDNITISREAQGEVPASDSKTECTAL
Experimental: as §1, §2
Cells were seeded into 96-well plates at 25,000 cells/well and cultured overnight. […]
as §3, §4

[1] = Determination of compound Cmax and AUC after oral gavage; type: in vivo, Sprague-Dawley rats; settings: Sprague-Dawley, rat plasma; for AUC: blood at 0.5-4 h
Experimental: Blood samples were processed to plasma using K2EDTA as an anticoaglulant. Plasma samples were treated with acetonitrile containing an internal standard, precipitated proteins removed by centrifugation. Supernatants were analyzed by LC-MS/MS and compound concentrations were determined by interpolated from a standard curve prepared in plasma. All compounds were orally dosed at the dosage shown, and pharmacokinetic parameters determined.

[2] = Fecal recovery of orally administered compounds; type: in vivo, Sprague-Dawley rats; settings: rat, oral gavage, feces collected until 48 hr after dosing; same animals as Example 6
Experimental: The animals were kept in metabolic cages and feces were collected from the time of dosing until 48 hr after dosing. Upon collection, feces was dried by lyophilization and ground to a visually homogenous powder. Duplicate samples of ground feces from each individual animal were weighed out and extracted using organic solvent. Extracted samples were then diluted into mobile phase and test compound levels were quantitatively determined by LC-MS/MS analysis as described in Example 6 except that the standard curve was prepared in a feces matrix.

NaPi2b = assay: Competition with phosphate: Pi uptake assay repeated at 2.1 vs 0.1 mM phosphate; type: cell-based; settings: potency at 2.1 vs 0.1 mM phosphate
Experimental: To ascertain if an inhibitor was competitive for binding with phosphate, the procedure was repeated, but raising the concentration of the substrate in the assay mixture from 0.1 to 2.1 mM phosphate.

[3] = system: uptake of phosphorus from the intestine; assay: In vivo evaluation, co-dosing in chow: inhibition of uptake of phosphorus from the intestine; design: species or system Sprague-Dawley rats; settings: rat, compound in chow, mean drug dose 115 mg/kg/day, versus control group
Text: Male, 7-week-old Sprague-Dawley rats (Charles-River laboratories international, Hollister, Calif.) were allowed to acclimate for a minimum of 3 days. The experiment was initiated by switching animals to a synthetic diet (0.6% phosphorus and 0.6% calcium, Harlan Teklad TD.84122) for four days. After this time, the animals were placed into metabolic cages for daily monitoring of food and water consumption, as well as urine and fecal collections. Test compounds were incorporated into the powdered diet listed above containing 3% chocolate flavoring (w/w, BioServ #7345) at 1.3 mg test compound per gram of diet to achieve an average daily nominal dose of 100 mg/kg/day. The actual dose received by each animal was later determined by measuring prepared diet consumption and body weight. Urine samples were collected in three daily periods from 24-48, 48-72, and 72-96 hours of drug dosing. […] Phosphorus levels in the urine were determined by anion exchange chromatography using a Dionex ICS-3000 ion chromatography system. […] Elution of urine phosphate ions was monitored via conductivity detector and reported as ppm relative to a standard ion solution containing phosphate. Daily urinary P output relative to the P consumed in the prepared diet for each animal was calculated. […] The differences between the means of control and treated groups were evaluated by t tests.

SMILES	IC50 (rat NaP2b (SLC34A2))	IC50 (human NaP2b (SLC34A2))	Cmax ([1]; actual oral dose 7.5 mg/kg, LLOQ 10 ng/mL)	AUC ([1]; actual oral dose 7.5 mg/kg)	% recovered in feces [2]	Competitive with respect to Pi? (NaPi2b)	Mean % inhibition Urine Pout/P consumed [3]	Cmax ([1]; actual oral dose 11 mg/kg, LLOQ 0.5 ng/mL)	AUC ([1]; actual oral dose 11 mg/kg)
O=C(O)CCSCc1cccc(C(=O)Nc2ccc(N3CCCCC3)cc2C(=O)c2cc3ccc(C(F)(F)F)cc3[nH]2)c1 [Example 1, 3-(3-((4-(Piperidin-1-yl)-2-(6-(trifluoromethyl)-1H-indole-2-carbonyl)phenyl)carbamoyl)benzylthio)propanoic acid]	1000 to 7940 nM	1000 to 7940 nM	299 ng/mL	433 ng·h/mL	34%				
CN(CCN1CCOCC1)C(=O)c1cccc(C(=O)Nc2ccc(N3CCCCC3)cc2C(=O)c2cc3ccc(C(F)(F)F)cc3[nH]2)c1 [Example 2, N1-Methyl-N1-(2-morpholinoethyl)-N3-(4-(piperidin-1-yl)-2-(6-(trifluoromethyl)-1H-indole-2-carbonyl)phenyl)isophthalamide 2,2,2-trifluoroacetate]	< 1000 nM	< 1000 nM			2.9%	No	20%	91 ng/mL	< 97 ng·h/mL
COCCNC(=O)c1cccc(SCc2cccc(C(=O)Nc3ccc(N4CCCCC4)cc3C(=O)c3cc4ccc(C(F)(F)F)cc4[nH]3)c2)c1 [Example 3, N-(2-Methoxyethyl)-3-(3-(4-(piperidin-1-yl)-2-(6-(trifluoromethyl)-1H-indole-2-carbonyl)phenylcarbamoyl)benzylthio)benzamide]	2000 to 25100 nM								
